Patent US5041438A, “Method for treating retroviral infections with benzodiazepine compounds” (Hoffmann-La Roche Inc., priority 1989, dated 1991)
“Also recorded” adds a separate entry of the source. Where two headings read alike, the source gives them in different places.

Experiments:
HIV/HTLV III, RF strain = assay: p24 viral antigen capture assay (ELISA) in C8166 CD4+ T-cells; type: cell-based; settings: for anti-viral activity in p24 viral antigen capture assay: result in words
Experimental: Compound I was tested for anti-viral activity in the p24 viral antigen capture assay.
The Enzyme Linked Immuno-absorbant Assay (ELISA) was used to test Compound I for anti-HIV activity by measuring virus replication in CD4^+ T-lymphocytes by detecting viral p24 antigen released into the tissue culture supernatant of infected cells.
High titer virus stocks [HIV/HTLV III, RF strain]were grown in H9 cells in RPMI-1640 (Flow Laboratories) supplemented with 10% fetal calf serum, penicillin (100 IU/ml) and streptomycin (100 μg/ml). Cell debris was removed by low speed centrifugation and the supernatant stored at -70° C. until required. The host cell line used in the anti-viral assays was the C8166 CD4^+ T-cell line which is particularly susceptible to infection with HIV. Cells were incubated with 10 TCID50, HIV/HTLV III (RF) at 37° C. for 90 minutes and then washed three times with PBS. Cell aliquots (2×10^5) were resuspended in 1.5 ml growth medium in 6 ml tubes and appropriate amounts of Compound I added and incubated at 37° C. At 72 hours post-infection, the supernatants from the cell cultures were assayed for p24 antigen. The antigen capture ELISA used was purchased from Coulter (Luton, UK). The assays were carried out on supernatants taken from infected cell cultures using the procedure described by the manufacturer. In each assay a positive control was included, together with a supernatant control taken from uninfected cells. The plates were read using the appropriate spectrophotometric detection system. Results of two separate assays are:
ID50 is defined as the dose of compound required to inhibit viral replication by 50 percent. […] Approximately 0.1 μM and 6 μM of Compound I yields 50 percent inhibition of viral replication. 0.003 μM AZT provided 50 percent inhibition of viral replication in one test conducted. ddC provided 50 percent inhibition at a concentration of 0.01 μM in one test.

TAT = assay: anti-TAT assay: SeAP reporter expression under HIV-LTR in COS cells co-transfected with TAT; type: cell-based; settings: 1, 10 and 100 μM, added 24 h post transfection, assayed 48 h later, FIG. 1
Description: (§1) FIG. 1 Illustrates anti-TAT activity of Compound I. COS cells are co-transfected with TAT and Secreted Alkaline Phosphatase (SeAP) genes. The SeAP gene, under the control of the HIV-LTR (responsive to TAT activation) or the RSV-LTR (unresponsive to TAT action) serves as a monitor or reporter gene. SeAP activity in the HIV-LTR combination but not the RSV-LTR combination serves as a measure of TAT activity. Cells containing the RSV-LTR co-transfected gene combination serve as an indicator of the non-specific toxicity of added test compounds. The black bars represent the percent inhibition of SeAP activity by Compound I when the SeAP gene is under the control of HIV-LTR. The hatched bars represent the effect of Compound I on SeAP activity when the SeAP gene is regulated by RSV-LTR. […] The figure includes results from three separate assays.
(§2) Compound I was tested for anti-TAT activity in an anti-TAT assay described in copending patent application, now U.S. Ser. No. 07/428,555 filed Oct. 10, 1989, filed on the same day as the instant application and hereby incorporated by reference. […] The anti-TAT activity is measured by the percent inhibition of SeAP gene expression under the control of HIV-LTR.

COS cells = assay: parallel cytotoxicity assay: SeAP expression under RSV-LTR in COS cells; type: cell-based; settings: RSV-LTR not responsive to TAT, FIG. 1
Description: as §1, §2

HIV-1 NIT strain = assay: inhibition of HIV-cytopathic effect and of viral RNA and antigen production in infected CD4+ CEM cells; type: cell-based; settings: MOI=1, 3 and 6 days, FIGS. 2 and 3
Experimental: High titer virus stocks (HIV-1 NIT strain) were grown in CD4^+ CR1O cells in RMPI-1640 media (Gibco Laboratories) supplemented with 10% fetal calf serum and 0.1 mg/ml Gentamicin. The collected media were filtered through a 0.8 Micron filter and virus isolates were concentrated 100 fold and stored at -80° C.
CD4^+ CEM cells, propagated in the same medium, were incubated for 60 minutes at 37° C. with diluted stock virus at MOI=1. Cells were washed three times with phosphate buffered saline and resuspended in the medium at 2×10^5 cells/ml. Various quantities of Compound I were added. Three days after infection, numbers of live cells were counted by trypan blue exclusion [Mitsuya, et al. Proc. Natl. Acad. Sci. 83:1911 (1986)]. […] Cells stained with the fluorescent antibody were counted using a fluorescence microscope and the results were expressed as percentage of the total number of cells counted [(Hedenskog et al., J. Med. Virol. 1:9325 (1986)].
The viral RNA in infected cells was quantitized with an RNA-RNA hybridization/reversible target capture procedure [Gillespie et al. Molecular and Cellular Probes, 2:73 (1989)]. […] 2×10^5 live cells, determined by trypan blue exclusion, were used in each assay.
For cytotoxicity testing, uninfected CEM cells were treated with Compound I at similar concentrations and toxicity of the compound was measured by the live-cell count. […]

HIV = settings: in most patients; cited from earlier work

Structure (SMILES)	IC50 (HIV/HTLV III, RF strain; Human immunodeficiency virus 1, p24 antigen, C8166 cells, 72 h post-infection, first of two separate assays, read-out: ID50 (dose of compound required to inhibit viral replication by 50 percent))	anti-viral activity in p24 viral antigen capture assay (HIV/HTLV III, RF strain)	anti-TAT activity (inhibition of SeAP gene expression under control of HIV-LTR) (TAT)	nonspecific cytotoxicity (SeAP gene expression under control of RSV-LTR) (COS cells)	anti-HIV activity (HIV-cytopathic effect, viral RNA and antigen production) (HIV-1 NIT strain)	IC50 (HIV/HTLV III, RF strain; Human immunodeficiency virus 1, C8166, 72 h, read-out: ID50 (dose of compound required to inhibit viral replication by 50 percent), p24 antigen, C8166 cells, 72 h post-infection, first of two separate assays)	IC50 (HIV/HTLV III, RF strain; Human immunodeficiency virus 1, C8166, 72 h, read-out: ID50 (dose of compound required to inhibit viral replication by 50 percent), p24 antigen, C8166 cells, 72 h post-infection, second of two separate assays)	IC50 (HIV/HTLV III, RF strain; Human immunodeficiency virus 1, p24 antigen, C8166 cells, 72 h post-infection, second of two separate assays, read-out: ID50 (dose of compound required to inhibit viral replication by 50 percent))	virustatic range (body weight dose) (HIV)
Cc1cn([C@H]2C[C@H](N=[N+]=[N-])[C@@H](CO)O2)c(=O)[nH]c1=O [AZT]	3 nM	active in the p24 assay; also recorded: exhibits anti-viral activity							
O=C1CN=C(c2ccc[nH]2)c2cc(Cl)ccc2N1 [Compound I, 7-chloro-5-(2-pyrryl)-3H-1,4-benzodiazepin-2(1H)-one]		positive results; also recorded: exhibits anti-viral activity	specifically inhibits TAT action; also recorded: exhibits anti-TAT activity; also recorded: specific inhibitor of TAT	does not exhibit nonspecific toxicity; also recorded: does not exhibit nonspecific cytotoxicity	inhibition of HIV-cytopathic effect and viral RNA and antigen production	100 nM	6000 nM		
Nc1ccn([C@H]2CC[C@@H](CO)O2)c(=O)n1 [ddC]		active in the p24 assay						10 nM	0.005-0.25 mg/kg body weight
